Results taken from patent US4276890A, “Tobacco smoking inhibitor” (priority 1979, dated 1981).

Experiments:
rat brain cortex slices = settings: in vitro; cited from earlier work
[1] = cited from earlier work
[2] = test system: hexobarbital-induced sleeping time; settings: 300 to 500 mg per kg; cited from earlier work
[3] = test system: rate of weight gain in animals; settings: animal feeds, up to 200 grams per ton; cited from earlier work
[4] = test system: tobacco consumption of habitual smokers; assay: General observations of treatment on tobacco consumption and subjective effects; type: in vivo, human (test subjects
Excerpt: In a preferred embodiment, finely divided ethyl maltol is distributed in a chewing gum base, which when chewed by the subject, results in a gradual release of ethyl maltol into the oral cavity. When administered in appropriate amounts over a period of several days, there results a gradual decrease in the number of cigarettes smoked and the length of time they are smoked. […] Reductions in the frequency and quantity of smoking have been observed in test subjects who were unaware that their smoking behavior was monitored. […] Subjectively, test subjects experience a reduced desired to smoke, tend to neglect the opportunities to light up a cigarette and tend to leave cigarettes unsmoked in the ashtray after a few puffs. The effect is sufficiently subtle that a smoker is sometimes unaware that their tobacco consumption rate was decreased until such point as the lowered consumption rate becomes obvious. For smokers sincerely desiring to reduce or eliminate their smoking, the effect of the treatment is most gratifying. However, for smokers who are not psychologically committed to giving up smoking, the effects may be alarming. It is of course, possible to override the effects of the treatment by conscious effort to smoke at the pre-treatment rate.
Smoking behavior is complex and includes cigarette, pipe and cigar smoking. Both from the standpoint of habituation and of health hazard, cigarette smoking is considered to be the most serious. It is contemplated that the treatment method described herein will be effective to inhibit all forms of smoking behavior and combinations thereof, involving the consumption of tobacco. For convenience, the ensuing discussion focuses on cigarette smoking, as exemplary of smoking behavior in general. Tobacco consumption is a function the number of cigarettes smoked and the proportion of each cigarette smoked. Reduction of consumption is measured by comparison with a smoker's pretreatment consumption rate. All data used herein are expressed as percent reduction, i.e., the differential between pretreatment and current smoking consumption rate divided by the pretreatment rate, times 100. All rates are calculated to take into account both the number of cigarettes smoked and the proportion of each smoked.
Duration of treatment may be as little as ten days, preferably 20 to 30 days. As might be expected with a complex behavior such as smoking, where psychological and social factors play a major role in addition to individual variations in nicotine susceptibility and responsiveness to gamma pyrone, the rate of smoking reduction during treatment is highly variable. Typically, a gradual reduction to about 50% to the pretreatment rate is observed over the first four to six days. Frequently, little or no reduction is observed for the first two days, although occasionally a dramatic reduction is observed almost immediately. In the ensuing seven to ten days, further reductions, typically 70 to 100%, are observed. Reduction below the 50% level in the first 3-5 days is sometimes accompanied by the physiological (but not psychological) symptoms of nicotine withdrawl, such as vertigo, alimentary distress, diuresis, scotoma and disorientation. Such symptoms have never been observed in non-smoking control subjects using the same gamma pyrone dosages. […] The entire course of treatment is therefore extended somewhat, preferably to about 20 to 30 days total. […]

[5] = test system: convulsions produced by pentylenetetrazole or strychnine; settings: 300 to 500 mg per kg; cited from earlier work
[6] = test system: spontaneous motor activity; settings: mice, 75 mg/kg; cited from earlier work
[7] = cited from earlier work; remark: listed apart in the source
mice = settings: cited from earlier work
smoking behavior = settings: cited from earlier work

| Compound | oxygen intake by rat brain cortex slices (rat brain cortex slices) | consumption per day ([1]; as much as 1.5 grams per day) | safe average daily intake ([1]; per day) [mg per kg] | hexobarbital-induced sleeping time [2] | rate of weight gain [3] | tobacco consumption of habitual smokers ([4]; appropriate dosage levels and rates) | minimum effective dose relative to ethyl maltol ([4]; in vivo) [times greater] | convulsions produced by pentylenetetrazole or strychnine [5] | spontaneous motor activity, decrease [6] | absorption ([7]; after oral administration) | excretion ([7]; after oral administration) | form of excretion ([7]; after oral administration) | metabolism and excretion ([7]; in vivo) | acute LD50 (mice) [mg per kg] | effectiveness versus placebo for smoking (smoking behavior; controlled double blind tests) | pharmacological action (smoking behavior; in vivo) | withdrawal syndrome on discontinuation (smoking behavior; in vivo) |
| --- | --- | --- | --- | --- | --- | --- | --- | --- | --- | --- | --- | --- | --- | --- | --- | --- | --- |
| Cc1occc(=O)c1O [maltol, 3-hydroxy-2-methyl-4-pyrone] | not affected | completely harmless | 1 | potentiating hexobarbital-induced sleeping time | improves the rate of weight gain | significantly reduces the tobacco consumption of habitual smokers | 4 to 6 | inhibited convulsions | approximately 50% | rapidly absorbed | rapidly excreted | primarily as glucuronide and ethereal sulfate conjugates | rapidly metabolized and excreted | 820 | – | – | – |
| CN1[C@@H](CC(=O)c2ccccc2)CCC[C@H]1C[C@H](O)c1ccccc1 [lobeline] | – | – | – | – | – | – | – | – | – | – | – | – | – | – | ineffective, i.e., no more effective than placebos | weak nicotine-like action | apparently discontinuable without a withdrawal syndrome |
